# Measurements reported in patent publication US7504432B2 (priority 2000, dated 2009).
# Legend:
# [1] = biological target: T1, m2 muscarinic acetylcholine receptor (Homo sapiens, UniProt P08172); test: biochemical; type: binding
# T1 construct: purchased Receptor Biology, Inc; host or cells: CHO cells
# T1 sequence (P08172 1-466): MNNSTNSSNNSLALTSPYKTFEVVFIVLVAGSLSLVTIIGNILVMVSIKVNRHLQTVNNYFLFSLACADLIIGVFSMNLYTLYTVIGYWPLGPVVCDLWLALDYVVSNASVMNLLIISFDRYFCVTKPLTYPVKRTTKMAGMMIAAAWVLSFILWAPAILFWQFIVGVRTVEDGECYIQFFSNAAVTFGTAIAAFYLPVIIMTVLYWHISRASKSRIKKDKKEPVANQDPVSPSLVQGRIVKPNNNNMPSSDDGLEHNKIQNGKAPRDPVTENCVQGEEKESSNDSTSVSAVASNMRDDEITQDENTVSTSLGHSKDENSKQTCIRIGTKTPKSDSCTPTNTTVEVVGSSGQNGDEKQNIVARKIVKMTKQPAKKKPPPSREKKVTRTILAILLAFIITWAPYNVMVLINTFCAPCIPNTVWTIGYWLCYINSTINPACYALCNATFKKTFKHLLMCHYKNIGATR
# [2] = biological target: T2, m3 muscarinic acetylcholine receptor (Homo sapiens, UniProt P20309); test: biochemical; type: binding
# T2 construct: purchased Receptor Biology, Inc; host or cells: CHO cells
# [3] = biological target: T3, M2 receptor in isolated rat right atrium (Rattus norvegicus, UniProt P10980); test: biochemical
# T3 construct: A male SD strain rat (weighing 300-500 g) was killed by exsanguination, and the right atrium was isolated; from tissue; host or cells: isolated right atrium of male SD rat
# T3 sequence (P10980 1-466): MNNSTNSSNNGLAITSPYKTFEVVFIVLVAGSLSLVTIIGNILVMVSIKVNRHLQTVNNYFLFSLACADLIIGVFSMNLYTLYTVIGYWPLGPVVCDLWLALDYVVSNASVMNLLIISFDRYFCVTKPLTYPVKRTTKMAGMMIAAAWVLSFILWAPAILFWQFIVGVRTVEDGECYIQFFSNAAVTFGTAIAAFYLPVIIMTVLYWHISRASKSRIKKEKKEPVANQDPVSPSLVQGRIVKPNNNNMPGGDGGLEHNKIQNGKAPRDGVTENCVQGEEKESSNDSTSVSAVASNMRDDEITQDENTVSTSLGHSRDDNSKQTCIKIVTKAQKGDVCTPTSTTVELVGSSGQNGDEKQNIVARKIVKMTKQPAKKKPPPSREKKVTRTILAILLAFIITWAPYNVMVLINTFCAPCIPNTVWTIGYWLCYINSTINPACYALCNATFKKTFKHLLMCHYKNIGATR
# [4] = biological target: T4, airway M3 receptor in isolated rat trachea (Rattus norvegicus, UniProt P08483); test: biochemical
# T4 construct: A male SD strain rat (weighing 300-500 g) was killed by exsanguination, and the trachea was isolated; from tissue; host or cells: isolated trachea of male SD rat
# muscarinic M3 receptor = biological target: T5, muscarinic M3 receptor (Canis lupus familiaris, UniProt A0A8I3N190); details: dog, in vivo
# T5 construct: 12-36 months old male beagle dogs (weighing 10-15 kg) were used; from tissue; host or cells: anesthetized male beagle dogs, airway in vivo
# T5 sequence (A0A8I3N190 1-590): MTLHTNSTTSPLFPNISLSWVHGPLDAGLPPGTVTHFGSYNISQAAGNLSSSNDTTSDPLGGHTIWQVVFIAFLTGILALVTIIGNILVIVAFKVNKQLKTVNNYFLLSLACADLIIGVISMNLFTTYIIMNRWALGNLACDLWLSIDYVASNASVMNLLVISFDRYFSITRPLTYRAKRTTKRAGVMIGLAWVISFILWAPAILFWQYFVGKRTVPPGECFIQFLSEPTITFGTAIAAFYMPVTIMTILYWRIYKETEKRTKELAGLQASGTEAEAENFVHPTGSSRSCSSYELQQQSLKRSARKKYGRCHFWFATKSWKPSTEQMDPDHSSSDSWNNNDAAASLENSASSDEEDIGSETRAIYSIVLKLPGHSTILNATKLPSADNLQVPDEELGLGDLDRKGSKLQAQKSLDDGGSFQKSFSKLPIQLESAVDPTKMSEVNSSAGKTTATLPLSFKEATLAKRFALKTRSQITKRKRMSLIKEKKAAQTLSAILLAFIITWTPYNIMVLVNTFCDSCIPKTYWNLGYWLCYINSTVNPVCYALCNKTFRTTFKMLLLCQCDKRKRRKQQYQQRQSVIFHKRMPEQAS
# T2 sequence (P20309 whole entry): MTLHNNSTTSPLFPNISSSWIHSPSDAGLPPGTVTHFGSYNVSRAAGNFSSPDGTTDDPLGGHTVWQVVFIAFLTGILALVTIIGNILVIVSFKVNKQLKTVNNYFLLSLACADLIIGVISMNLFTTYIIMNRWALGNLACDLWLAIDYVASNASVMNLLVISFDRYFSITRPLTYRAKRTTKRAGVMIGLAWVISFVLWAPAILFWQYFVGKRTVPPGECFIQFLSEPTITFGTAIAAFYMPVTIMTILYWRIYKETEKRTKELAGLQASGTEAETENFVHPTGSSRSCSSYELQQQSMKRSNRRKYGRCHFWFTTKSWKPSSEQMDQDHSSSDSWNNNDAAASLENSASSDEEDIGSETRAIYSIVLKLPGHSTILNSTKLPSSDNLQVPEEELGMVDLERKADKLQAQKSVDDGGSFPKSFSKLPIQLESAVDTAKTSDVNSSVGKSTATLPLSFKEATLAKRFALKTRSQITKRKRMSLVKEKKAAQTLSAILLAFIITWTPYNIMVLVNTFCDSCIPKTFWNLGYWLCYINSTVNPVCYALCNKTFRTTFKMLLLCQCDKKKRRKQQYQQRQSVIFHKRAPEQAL
# T4 sequence (P08483 whole entry): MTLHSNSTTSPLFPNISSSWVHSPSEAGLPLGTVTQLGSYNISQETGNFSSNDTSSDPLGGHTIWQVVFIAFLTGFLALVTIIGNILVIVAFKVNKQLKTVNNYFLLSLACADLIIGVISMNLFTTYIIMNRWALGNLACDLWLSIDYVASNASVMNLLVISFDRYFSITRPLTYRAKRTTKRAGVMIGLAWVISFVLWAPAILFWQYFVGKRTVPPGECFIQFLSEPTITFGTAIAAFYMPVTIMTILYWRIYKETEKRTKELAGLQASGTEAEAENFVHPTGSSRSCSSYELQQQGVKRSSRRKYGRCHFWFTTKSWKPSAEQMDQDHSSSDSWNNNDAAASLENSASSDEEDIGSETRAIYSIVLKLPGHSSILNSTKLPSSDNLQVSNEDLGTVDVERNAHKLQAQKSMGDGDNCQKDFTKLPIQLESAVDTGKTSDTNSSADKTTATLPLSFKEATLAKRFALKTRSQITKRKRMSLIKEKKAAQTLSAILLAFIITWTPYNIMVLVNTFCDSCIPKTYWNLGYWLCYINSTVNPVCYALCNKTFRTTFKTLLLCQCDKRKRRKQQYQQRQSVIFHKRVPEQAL
compound,measurement,setting,value
"N=CN1CCC(CCOC(=O)[C@](O)(c2ccccc2)[C@@H]2CCC(F)(F)C2)CC1 [Example 54, 2-(1-(Iminomethyl)piperidin-4-yl)ethyl (2R)-2-((1R)-3,3-difluorocyclopentyl)-2-hydroxy-2-phenylethanoate]",Ki,[1],4.76 nM
same,Ki,[2],0.079 nM
same,m2/m3 (ratio of Ki),[2],60.2
same,Kb,[3],10.6 nM
same,Kb,[4],0.21 nM
same,M2/M3 (ratio of KB),"[4]; rat, right atrium / trachea",50
same,Shift Value 5 minutes after,muscarinic M3 receptor,>30
same,Shift Value 4 hours after,muscarinic M3 receptor,>30
same,Shift Value 24 hours after,muscarinic M3 receptor,3.9
